Article PMC8347512, “Synthesis and Biological Assessment of 4,1-Benzothiazepines with Neuroprotective Activity on the Ca^2+ Overload for the Treatment of Neurodegenerative Diseases and Stroke” (Molecules, 2021)
Like-named read-outs stand apart in the source and are kept apart here.

Legend:
[1] = system: NMDA receptors; experiment: Blockade of NMDA-evoked cytosolic Ca2+ elevation (Fluo-4/AM) in rat cortical neurons; assay type: cell-based
Experimental: (§1) The neuroblastoma SH-SY5Y cell line was obtained from the American Type Culture Collection (ATCC-CRL-2266), maintained and cultured in a 1:1 mixture of MEM and F12 media with 10% of fetal bovine serum (FBS), according to procedures previously described. For fluorescence-based [Ca^2+]c measurements, SH-SY5Y cells were seeded in clear-bottomed, 96-well black plates at a density of 40,000 cells/well. For viability assays, SH-SY5Y cells were seeded in 48-well plates at a density of 70,000 cells/well following the procedure recently reported. Rat cortical embryonic neurons were prepared from 19-day-old embryos directly seeded in the plate well treated with poly-D-lysine in neurobasal medium (Gibco 21103, Madrid, Spain) supplemented with 1% of L-glutamine (Sigma, G6392), 0.5% of penicillin/streptomycin and 0.1% of gentamincine. In fluorescence-based [Ca^2+]c measurement, neurons were seed at clear-bottomed, 96-well black plates at a density of 30,000 cells/well. For viability assays, the rat cortical neurons were also seeded in 48-well plates at a density of 40,000 cells/well. All the biological assays were conducted under sterile conditions.
To assess the blocking effect of compounds on the VGCC, we used SH-SY5Y cells charged with the Ca^2+-sensitive fluorescent dye Fluo-4/AM at 10 μM in Krebs-HEPES buffer, following a protocol recently described. Compounds were incubated at the desired concentrations (1, 3, 10, and 30 μM). The Ca^2+ entry was favored by addition of K^+ 70 mM to the extracellular medium. […] Rat cortical neurons were charged with Fluo-4/AM at 3 μM in Krebs-HEPES buffer and compounds incubated at same concentrations than before. To stimulate Ca^2+ entry through the NMDA-sensitive glutamate receptors, NMDA was applied at 10 μM. In both cases, fluorescence oscillations as result of the [Ca^2+]c increases were real-time monitored in a multi-well fluorescence plate reader (FluoStar Optima, BMG, Germany), with excitation and emission wavelengths of 485 and 520 nm, respectively. Data were calculated as fluorescence increase (ΔF), according to the formula: ΔF=Fx−Fo /Fmax−Fmin where Fx is the maximum fluorescence obtained after Ca^2+ entry stimulation, F0 is the averaged fluorescence before, Fmax is the maximum fluorescence of the well obtained by treating cells with 5% Triton X-100, and the Fmin is the minimum fluorescence of well obtained by adding MnCl2 1 M to the previously Triton-lysed cells. The ΔF data were normalized respect to the control (ΔFc).

[2] = system: VGCC; experiment: Blockade of 70 mM K+-evoked cytosolic Ca2+ elevation (Fluo-4/AM) in SH-SY5Y cells; assay type: cell-based; conditions: for Decrease of K+-evoked Ca2+ signaling compared with nifedipine: compounds 10 μM, nifedipine 10 μM
Experimental: as §1
To assess the blocking effect of compounds on the VGCC, we used SH-SY5Y cells charged with the Ca^2+-sensitive fluorescent dye Fluo-4/AM at 10 μM in Krebs-HEPES buffer, following a protocol recently described. Compounds were incubated at the desired concentrations (1, 3, 10, and 30 μM). The Ca^2+ entry was favored by addition of K^+ 70 mM to the extracellular medium. To evaluate the blocking effect of compounds on NMDA receptors, we have followed a protocol recently reported by our research group. Rat cortical neurons were charged with Fluo-4/AM at 3 μM in Krebs-HEPES buffer and compounds incubated at same concentrations than before. To stimulate Ca^2+ entry through the NMDA-sensitive glutamate receptors, NMDA was applied at 10 μM. In both cases, fluorescence oscillations as result of the [Ca^2+]c increases were real-time monitored in a multi-well fluorescence plate reader (FluoStar Optima, BMG, Germany), with excitation and emission wavelengths of 485 and 520 nm, respectively. Data were calculated as fluorescence increase (ΔF), according to the formula: ΔF=Fx−Fo /Fmax−Fmin where Fx is the maximum fluorescence obtained after Ca^2+ entry stimulation, F0 is the averaged fluorescence before, Fmax is the maximum fluorescence of the well obtained by treating cells with 5% Triton X-100, and the Fmin is the minimum fluorescence of well obtained by adding MnCl2 1 M to the previously Triton-lysed cells. The ΔF data were normalized respect to the control (ΔFc). Data are presented as percentage of blockade (100% ΔF) at the concentration of 10 μM, or as IC50, i.e., the concentration of compound capable of halving the ΔFc (%ΔF = 50).

[3] = system: rat cortical neurons; experiment: Per se toxicity, MTT reduction, rat cortical neurons; assay type: cell-based; conditions: 48 h
Experimental: as §1
The per se toxicity of the new synthetized compounds was assessed in both cell cultures by the method of MTT reduction. After 24 h of seeding, SH-SY5Y cells were preincubated with compounds at different concentrations (1, 3, 10, and 30 μM) for 24 h. Afterwards, MEM/F12 medium was replaced by one fresh with 1% FBS with the compounds at the same concentration. The viability of cultures was measured 20 h later, following a procedure recently described. In the case of rat cortical neurons, 7 days after seeding, compounds were added to the wells to reach a final concentration of 1, 3, 10, and 30 μM. Forty-eight hours later, neuron viability was measure by the same procedure as the one described for SH-SY5Y cells.

[4] = system: rat cortical neurons; experiment: Neuroprotection against glutamate 50 μM, MTT, rat cortical neurons; assay type: cell-based; conditions: compounds 10 μM
Experimental: as §1
(§2) The effect of compounds on the SH-SY5Y cells and rat cortical neurons viability compromised of different toxics was also evaluated by method of MTT reduction. Twenty-four hours after seeding, SH-SY5Y cells were preincubated with compounds at the concentration of 10 μM for 24 h. Afterwards, MEM/F12 medium was replaced by one fresh with 1% FBS, compounds at the same concentration, and rotenone/oligomycin A administered to media at the concentration of 30/10 μM, respectively. The cultures’ viability was measured 20 h later, following the MTT procedure recently described. As reference neuroprotective compound, melatonin 10 nM was selected. In the case of the rat cortical neurons, 7 days after seeding in 48-well plates, neurons were preincubated adding the compounds at a final concentration of 10 μM for 24 h. Then, toxic stimuli of 50 µM of glutamate was added to the wells. After 20 h, cell viability was measured by the MTT procedure. Here, the reference protective compound used was memantine (30 nM).

[5] = system: SH-SY5Y cells; experiment: Neuroprotection against rotenone/oligomycin A (R/O), MTT, SH-SY5Y cells; assay type: cell-based; conditions: R/O 30/10 μM, compounds 10 μM
Experimental: as §1, §2

[6] = Blood-brain barrier permeation assay (PAMPA), porcine brain lipid; assay type: in vitro ADME; conditions: read-out: Pe, in vitro permeability (PAMPA-BBB)
Experimental: The parallel artificial membrane permeation assay (PAMPA) was used to predict the capacity of compounds to cross the blood–brain barrier (BBB) by passive diffusion, in a similar manner as previously described. Compounds were dissolved in 10 mM phosphate-buffered saline (PBS) buffer (pH 7.4) to the concentration of 100 µM. The filter membrane of the donor 96-well plate (Multiscreen IP sterile clear plate PDVF membrane, pore size […]) was impregnated with 4 µL of porcine brain lipid (PBL) (Avanti Polar Lipids, Inc., Alabaster, AL, USA) in dodecane (20 mg/mL), and after 5 min, 180 µL of each compound solution was added. The acceptor 96-well plate (Multiscreen, Millipore Corp. Burlington, MA, USA) was filled with 180 µL of PBS and 1% of DMSO. Finally, the donor filter plate was carefully put on the acceptor plate to form a “sandwich”, which was left undisturbed for 4 h at rt. After incubation, an UV plate reader determined the concentration of compounds in both acceptor and donor wells (150 µL/well) as the maximum absorption wavelength of each compound. Concentration of the compounds in the donor and acceptor well, and equilibrium concentration were calculated from the standard curve and expressed as the permeability (Pe), according to the following formula: logPe=logC×−ln1−drugacceptor/drugequilibrium whereC=Vdonor×Vaceptor/Vdonor+Vaceptor×Area×Time)
Results are expressed as mean ± SEM of three different experiments in duplicate.

[7] = rat cortical embryonic neurons, NMDA 10 μM, compounds 1 to 30 μM; read-out: IC50, NMDA-evoked [Ca2+]c elevation
[8] = compounds 1 to 30 μM, Fluo-4/AM, read-out: IC50, concentration halving the 70 mM K+-evoked Ca2+ elevation
[9] = porcine brain lipid, pH 7.4, 4 h, rt, Pe ≥ 4 indicates passive BBB crossing

SMILES | IC50 [1, 7] [µM] | melting point [°C] | IC50 [2, 8] [µM] | Effect on cell viability of rat cortical neurons at 30 μM [3] | further results
O=C1CSC(c2cccnc2)c2cc(Cl)ccc2N1 (stereo not shown) [compound 16, 7-Chloro-5-(pyridin-3-yl)-3,5-dihydro-4,1-benzothiazepin-2-(1H)-one] | > 30 | 224 to 226 | > 30 |  | 
COc1ccccc1C1SCC(=O)Nc2ccccc21 (stereo not shown) [compound 33, 5-(2′-Methoxyphenyl)-3,5-dihydro-4,1-benzothiazepin-2-(1H)-one] | > 30 | 216 to 218 | > 30 | slightly reduced cell viability in a significant manner | Protection against glutamate-elicited neurotoxicity (in words) [4]: statistically significant dissipation of the glutamate-elicited neurotoxicity
COC(=O)C1=C(C)NC(C)=C(C(=O)OC)C1c1ccccc1[N+](=O)[O-] [Nifedipine, nifedipine, reference compound] |  |  | 15 |  | 
CN(C)c1ccc2c(c1)C(c1ccc(F)cc1)SCC(=O)N2 (stereo not shown) [compound 28, 7-Dimethylamino-5-(4′-fluorophenyl)-3,5-dihydro-4,1-benzothiazepin-2-(1H)-one] | > 30 | 219 to 222 | 19.5 | slightly reduced cell viability in a significant manner | Protection against R/O-induced oxidative stress (in words) [5]: clear trend to protect against oxidative stress
O=C1CSC(c2ccncc2)c2cc(Cl)ccc2N1 (stereo not shown) [compound 15, 7-Chloro-5-(pyridin-4-yl)-3,5-dihydro-4,1-benzothiazepin-2-(1H)-one] | > 30 | 224 to 226 | 20 |  | 
O=C1CSC(c2ccc([N+](=O)[O-])cc2)c2cc(Cl)ccc2N1 (stereo not shown) [compound 14, 7-Chloro-5-(4′-nitrophenyl)-3,5-dihydro-4,1-benzothiazepin-2-(1H)-one] | > 30 | 289 to 291 | 29.9 |  | Papp at 4 h, 100 µM [6, 9]: < 4 ×10⁻⁶ cm/s
O=C1CSC(c2ccccn2)c2cc(Cl)ccc2N1 (stereo not shown) [compound 17, 7-Chloro-5-(pyridin-2-yl)-3,5-dihydro-4,1-benzothiazepin-2-(1H)-one] | > 30 | 215 to 217 | 24.7 |  | 
COc1ccccc1C1SCC(=O)Nc2ccc(N(C)C)cc21 (stereo not shown) [compound 27, 7-Dimethylamino-5-(2′-methoxyphenyl)-3,5-dihydro-4,1-benzothiazepin-2-(1H)-one] | 18.5 | 233 to 236 |  | slightly reduced cell viability in a significant manner | Mitigation of the NMDA-elicited Ca2+ increase compared with memantine ([1]; rat cortical neurons, compounds 10 μM, memantine 10 μM): noticeable mitigation of the NMDA-elicited Ca^2+ increase, even higher than that exerted by the reference compound memantine; Protection against R/O-induced oxidative stress (in words) [5]: clear trend to protect against oxidative stress; IC50 ([2]; read-out: IC50, concentration halving the 70 mM K+-evoked Ca2+ elevation, compounds 1 to 30 μM, Fluo-4/AM): 29.3 µM
O=C1CSC(c2ccc(F)cc2)c2ccccc2N1 (stereo not shown) [compound 32, 5-(4′-Fluorophenyl)-3,5-dihydro-4,1-benzothiazepin-2-(1H)-one] | > 30 | 251 to 254 | 9.2 |  | Papp at 4 h, 100 µM [6, 9]: < 4 ×10⁻⁶ cm/s; Decrease of K+-evoked Ca2+ signaling compared with nifedipine [2]: in a similar manner or even better than the reference compound nifedipine; Protection against glutamate-elicited neurotoxicity (in words) [4]: statistically significant dissipation of the glutamate-elicited neurotoxicity
CN(C)c1ccc2c(c1)C(c1ccccc1Cl)SCC(=O)N2 (stereo not shown) [compound 26, 5-(2′-Chlorophenyl)-7-dimethylamino-3,5-dihydro-4,1-benzothiazepin-2-(1H)-one] | > 30 | 178 to 181 | 25.4 | slightly reduced cell viability in a significant manner | Protection against R/O-induced oxidative stress (in words) [5]: clear trend to protect against oxidative stress; Papp at 4 h, 100 µM [6, 9]: < 4 ×10⁻⁶ cm/s
O=C1CSC(c2ccncc2Cl)c2cc(Cl)ccc2N1 (stereo not shown) [compound 18, 7-Chloro-5-(3′-chloropyridin-4-yl)-3,5-dihydro-4,1-benzothiazepin-2-(1H)-one] | 28.3 | 226 to 229 | 11.5 | slightly reduced cell viability in a significant manner | Papp at 4 h, 100 µM ([6]; pH 7.4, threshold value of 40 nm/s): > 4 ×10⁻⁶ cm/s; Decrease of K+-evoked Ca2+ signaling compared with nifedipine [2]: in a similar manner or even better than the reference compound nifedipine
CC12CC3CC(C)(C1)CC(N)(C3)C2 [Memantine, memantine, reference compound] |  |  |  |  | IC50 ([1]; read-out: IC50, NMDA-evoked [Ca2+]c elevation; rat cortical embryonic neurons, NMDA 10 μM, compounds 1 to 30 μM): 17 µM
